Laboratory results as given in patent US8029770B2 (Rutgers, The State University, priority 2003, dated 2011).
Entries after “also recorded” stand apart in the source; their conditions may differ. Like-named read-outs stand apart in the source and are kept apart here. Marks after values point to notes of the source that are not given here.

Tests used:
[1] = test system: apoptotic sunburn cells in the epidermis of SKH-1 mice; assay: UVB-induced apoptotic sunburn cells in the epidermis of SKH-1 mice after topical application; type: in vivo, mouse; settings: for Percent Apoptotic Sunburn Cells, Non-UVB Treated: no UVB
Method: Chemicals and Animals. […] Female SKH-1 hairless mice (6 to 7 weeks old) were purchased from the Charles River Breeding Laboratories, and the animals were kept in an animal facility for at least one week before use at 7 to 8 weeks of age. Mice were given water and PURINA® Laboratory CHOW® 5001 diet from Ralston-Purina (St. […] For the analysis conducted herein, 5 mice were used per group. Treatment of Mice with UVB. […] The radiation was further calibrated with a model IL-1700 research radiometer/photometer (International Light, Newburyport, Mass.). Measurement of apoptotic sunburn cells. Identification of apoptoic sunburn cells was based morphologically on cell shrinkage and nuclear condensation due to fragmentation of the cells. […] Six hours after UVB, the animals were sacrificed and apoptotic sunburn cells in the epidermis were determined morphologically. […] Six hours after UVB, the animals were sacrificed and apoptotic sunburn cells in the epidermis were determined morphologically. […] Acetone Formulation. […] Six hours after UVB, the animals were sacrificed and apoptotic sunburn cells in the epidermis were determined morphologically. […] […] Formulations. […] Six hours after UVB the animals were sacrificed and apoptotic sunburn cells in the epidermis were determined morphologically. […] Six hours after UVB the animals were sacrificed and apoptotic sunburn cells in the epidermis were determined morphologically.

[2] = Weight of mouse during topical treatment of UVB-pretreated high risk SKH-1 mice; type: in vivo
Method: Female SKH-1 mice were treated with 30 mJ/cm^2 of UVB twice a week for 20 weeks.

[3] = test system: UVB-induced skin lesions in SKH-1 mice; assay: Prevention of UVB-induced skin (sunburn) lesions, sunscreen effect; type: in vivo, mouse; settings: 4.8% caffeine or 8.0% caffeine sodium benzoate (24 μmoles) in 100 mg DERMABASE 30 minutes before UVB 180 mJ/cm^2 on two consecutive days (FIG. 2)
Method: The areas (mm^2) and the intensity of red color in UVB-induced skin lesion were estimated semi-quantitatively 5 days after first UVB treatment. The lesion index were calculated as the lesion area multiplied by the arbitrary intensity: 0, no lesion; 1 barely detectable red lesion; 2 moderate red lesion, and 3, bright red lesion.
Outdoor occupational human exposure to UVB or a sunbathing exposure in the summer has been reported to range from 50-100 mJ/cm^2 per day (Larko, et al. (1983) Clin. Exp. Dermatol. 8:279-285; Diffey (1991) Phys. Med. Biol. 36:299-328).

[4] = test system: prostate tumor cell line PC-3; assay: Apoptosis in prostate tumor cell line PC-3; type: cell-based
cyclin B1 = assay: Epidermal cyclin B1 in UVB-treated mice, western blot and immunohistochemistry; type: in vivo, mouse
phospho-Chk2 (Ser387) = assay: Epidermal phospho-Chk2 (Ser387) in UVB-treated mice, western blot; type: in vivo, mouse; settings: topical immediately after UVB 30 mJ/cm2; 6 hours
[5] = test system: UVB-induced skin tumors in high risk SKH-1 mice

## Cn1c(=O)c2c(ncn2C)n(C)c1=O.O=C([O-])c1ccccc1.[Na+] [Caffeine Sodium Benzoate, caffeine sodium benzoate]
[1]; 6.2 μmole (each) in 100 μL acetone:water (9:1) immediately after UVB 30 mJ/cm^2 and at 30 and 120 min, 6 h, mean ± S.E.
  Percent Sunburn Cells, UVB: 1.10 ± 0.10%
[1]; 6.2 μmole in 100 μL acetone right after UVB 30 mJ/cm^2 and at 30 and 120 min, 6 h after UVB, mean ± S.E.
  Percent Apoptotic Sunburn Cells: 1.089 ± 0.080^a %
[1]; 100 mg formulation (2.4% caffeine or 4.0% caffeine sodium benzoate, 12.4 μmole, in DERMABASE; or commercial product) immediately after UVB 30 mJ/cm^2, 6 h
  Percent Sunburn Cells, UVB: 2.33 ± 0.36^a %
[1]; 1.0% CSB in 100 mg DERMABASE immediately after UVB 30 mJ/cm^2, 6 h
  Percent Sunburn Cells, UVB: 0.74 ± 0.20^a %
[1]; 2.0% CSB in 100 mg DERMABASE immediately after UVB 30 mJ/cm^2, 6 h
  Percent Sunburn Cells, UVB: 0.99 ± 0.20^a %
[1]; 4.0% CSB in 100 mg DERMABASE immediately after UVB 30 mJ/cm^2, 6 h
  Percent Sunburn Cells, UVB: 1.22 ± 0.19^a %
[1]; 6.0% CSB in 100 mg DERMABASE immediately after UVB 30 mJ/cm^2, 6 h
  Percent Sunburn Cells, UVB: 1.67 ± 0.31^a %
[1]; 8.0% CSB in 100 mg DERMABASE immediately after UVB 30 mJ/cm^2, 6 h
  Percent Sunburn Cells, UVB: 1.75 ± 0.32^a %
[1]; DERMABASE vehicle, equimolar amounts (Table 4)
  enhancement of UVB-induced apoptosis in the epidermis, applied in DERMABASE: to a greater extent than equimolar amounts of caffeine
[1]; Exp-1, 6.2 μmole in acetone:water (9:1) x3 after UVB 30 mJ/cm^2, 6 h
  Percent Apoptotic Sunburn Cells: 1.09 ± 0.08%
[1]; Exp-2, 3.1 μmole in acetone:water (9:1) x3 after UVB 30 mJ/cm^2, 6 h
  Percent Apoptotic Sunburn Cells: 0.45 ± 0.07%
[1]; Exp-2, 3.1 μmole
  Percent Apoptotic Sunburn Cells, Non-UVB Treated: 0.02 ± 0.01%
[1]; Exp-2, 6.2 μmole in acetone:water (9:1) x3 after UVB 30 mJ/cm^2, 6 h
  Percent Apoptotic Sunburn Cells: 0.68 ± 0.06%
[1]; Exp-2, 6.2 μmole
  Percent Apoptotic Sunburn Cells, Non-UVB Treated: 0.03 ± 0.01%
[1]; Table 1, vs acetone group, 6.2 μmole x3 after UVB 30 mJ/cm^2, 6 h
  % Induction: 434%
[1]; Table 3 Exp-1, 6.2 μmole
  % Induction: 445%
[1]; Table 3 Exp-2, 3.1 μmole
  % Induction: 114%
[1]; Table 3 Exp-2, 6.2 μmole
  % Induction: 224%
[1]; Table 4, 1.0% CSB in DERMABASE
  % Induction: 270%
[1]; Table 4, 2.0% CSB in DERMABASE
  % Induction: 395%
[1]; Table 4, 4.0% CSB in DERMABASE
  % Induction: 510%
[1]; Table 4, 6.0% CSB in DERMABASE
  % Induction: 735%
[1]; Table 4, 8.0% CSB in DERMABASE
  % Induction: 775%
[1]; no UVB (Table 3)
  effect on non-UVB-treated cells: unaffected
[2]; week 0, 2% CSB in DERMABASE
  Weight of mouse: 30.5 ± 0.5 g
[2]; week 0, 6% CSB in DERMABASE
  Weight of mouse: 30.4 ± 0.6 g
[2]; week 5, 2% CSB in DERMABASE
  Weight of mouse: 30.3 ± 0.4 g
[2]; week 5, 6% CSB in DERMABASE
  Weight of mouse: 29.9 ± 0.5 g
[2]; week 7, 2% CSB in DERMABASE
  Weight of mouse: 30.6 ± 0.4 g
[2]; week 7, 6% CSB in DERMABASE
  Weight of mouse: 29.8 ± 0.5 g
[2]; week 9, 2% CSB in DERMABASE
  Weight of mouse: 30.6 ± 0.4 g
[2]; week 9, 6% CSB in DERMABASE
  Weight of mouse: 30.0 ± 0.5 g
[2]; week 11, 2% CSB in DERMABASE
  Weight of mouse: 30.7 ± 0.5 g
[2]; week 11, 6% CSB in DERMABASE
  Weight of mouse: 30.2 ± 0.5 g
[3]
  formation of UVB-induced sunburn (skin) lesions: significantly prevented skin lesion formation; also recorded: inhibited the formation of sunburn lesions; also recorded: even more dramatic inhibitory effect
[4]; 0.1, 0.2 or 0.5 mM for 96 hours
  apoptosis in PC-3: dose-response relationship on apoptosis
[4]; PC-3, 0.1, 0.2 or 0.5 mM, 96 hours
  pro-apoptotic effect compared with caffeine: more potent than caffeine at all dose levels tested
Cyclin B1; UVB-treated mice, frozen sections, immunohistochemical
  percent of cyclin B1 positive cells in the epidermis: substantially enhanced
Cyclin B1; no UVB
  effect on cyclin B1 positive cells in the absence of UVB: little or no effect
Cyclin B1; topical immediately after UVB 30 mJ/cm2, western blot
  level of epidermal cyclin B1 vs UVB alone: increased substantially
phospho-Chk2 (Ser387)
  UVB-induced increase in the level of phospho-Chk2 (Ser387): inhibited
[5]; week 0, 2% CSB in DERMABASE
  No. of large tumors (diameter > 5 mm): 0
  Tumor volume per mouse (all mice) (mm^3): 0 mm^3
  Tumor volume per tumor (mm^3): 0 mm^3
  Tumors per mouse: 0
[5]; week 0, 6% CSB in DERMABASE
  No. of large tumors (diameter > 5 mm): 0
  Tumor volume per mouse (all mice) (mm^3): 0 mm^3
  Tumor volume per tumor (mm^3): 0 mm^3
  Tumors per mouse: 0
[5]; week 5, 2% CSB in DERMABASE
  No. of large tumors (diameter > 5 mm): 0
  Tumor volume per mouse (all mice) (mm^3): 0.1 ± 0.1 mm^3
  Tumor volume per tumor (mm^3): 0.5 ± 0.0 mm^3
  Tumors per mouse: 0.2 ± 0.1
[5]; week 5, 6% CSB in DERMABASE
  No. of large tumors (diameter > 5 mm): 0
  Tumor volume per mouse (all mice) (mm^3): 0.0 ± 0.0 mm^3
  Tumor volume per tumor (mm^3): 0.5 ± 0.0 mm^3
  Tumors per mouse: 0.0 ± 0.0
[5]; week 7, 2% CSB in DERMABASE
  No. of large tumors (diameter > 5 mm): 0
  Tumor volume per mouse (all mice) (mm^3): 0.6 ± 0.4 mm^3
  Tumor volume per tumor (mm^3): 1.5 ± 0.5 mm^3
  Tumors per mouse: 0.4 ± 0.2
[5]; week 7, 6% CSB in DERMABASE
  No. of large tumors (diameter > 5 mm): 0
  Tumor volume per mouse (all mice) (mm^3): 0.1 ± 0.1 mm^3
  Tumor volume per tumor (mm^3): 0.5 ± 0.0 mm^3
  Tumors per mouse: 0.2 ± 0.1
[5]; week 9, 2% CSB in DERMABASE
  No. of large tumors (diameter > 5 mm): 0
  Tumor volume per mouse (all mice) (mm^3): 1.0 ± 0.5 mm^3
  Tumor volume per tumor (mm^3): 1.9 ± 0.9 mm^3
  Tumors per mouse: 0.5 ± 0.2
[5]; week 9, 6% CSB in DERMABASE
  No. of large tumors (diameter > 5 mm): 0
  Tumor volume per mouse (all mice) (mm^3): 0.3 ± 0.2 mm^3
  Tumor volume per tumor (mm^3): 0.9 ± 0.4 mm^3
  Tumors per mouse: 0.3 ± 0.1
[5]; week 11, 2% CSB in DERMABASE
  No. of large tumors (diameter > 5 mm): 0
  Tumor volume per mouse (all mice) (mm^3): 1.8 ± 0.2 mm^3
  Tumor volume per tumor (mm^3): 2.1 ± 0.6 mm^3
  Tumors per mouse: 0.9 ± 0.3
[5]; week 11, 6% CSB in DERMABASE
  No. of large tumors (diameter > 5 mm): 0
  Tumor volume per mouse (all mice) (mm^3): 1.0 ± 0.4 mm^3
  Tumor volume per tumor (mm^3): 2.0 ± 0.5 mm^3
  Tumors per mouse: 0.5 ± 0.2
